Drawing on patent publication US6624160B2, “4-oxo-1,4-dihydro-3-cinnolinecarboxamides as antiviral agents” (Pharmacia & Upjohn Co., priority 2000, dated 2003), this text covers IC50 and melting point for five compounds.

The target of data set [1] is VZV polymerase (Varicella-zoster virus, UniProt P09252). The data set is described as follows: VZV polymerase assay (Table 1). The class given is biochemical.
Data set [2] addresses T1, HCMV polymerase (Human cytomegalovirus, UniProt P08546).
T1 construct: made in house; host or cells: recombinant baculovirus-infected SF-9 cells
The experiment in a line: HCMV polymerase assay (scintillation proximity assay, modified version). Particulars: modified SPA assay; compounds diluted in 100% DMSO; 4.5 mM DTT. The class given is biochemical. On the procedure:
The HCMV polymerase assay is performed using a scintillation proximity assay (SPA) as described in several references, such as N. D. Cook, et al., Pharmaceutical Manufacturing International, pages 49-53 (1992); K. Takeuchi, Laboratory Practice, September issue (1992); U.S. Pat. No. 4,568,649 (1986); which are incorporated by reference herein. Reactions are performed in 96-well plates. The assay is conducted in 100 μl volume with 5.4 mM HEPES (pH 7.5), 11.7 mM KCl, 4.5 mM MgCl2, 0.36 mg/ml BSA, and 90 nM ^3H-dTTP. Assays are run with and without CHAPS, (3-[(3-cholamidopropyl)-dimethylammonio]-1-propane-sulfonate) at a final concentration of 2 mM. HCMV polymerase is diluted in enzyme dilution buffer containing 50% glycerol, 250 mM NaCl, 10 mM HEPES (pH 7.5), 100 μg/ml BSA, and 0.01% sodium azide. The HCMV polymerase, which is expressed in recombinant baculovirus-infected SF-9 cells and purified according to literature procedures, is added at 10% (or 10 μl) of the final reaction volume, i.e., 100 μl. Compounds are diluted in 50% DMSO and 10 μl are added to each well. Control wells contain an equivalent concentration of DMSO. Unless noted otherwise, reactions are initiated via the addition of 6 nM biotinylated poly(dA)-oligo(dT) template/primer to reaction mixtures containing the enzyme, substrate, and compounds of interest. Plates are incubated in a 25° C. or 37° C. H2O bath and terminated via the addition of 40 μl/reaction of 0.5 M EDTA (pH 8) per well. Reactions are terminated within the time-frame during which substrate incorporation is linear and varied depending upon the enzyme and conditions used, i.e., 30 min. for HCMV polymerase. Ten μl of streptavidin-SPA beads (20 mg/ml in PBS/10% glycerol) are added following termination of the reaction. Plates are incubated 10 min. at 37° C., then equilibrated to room temperature, and counted on a Packard Topcount. Linear regressions are performed and IC50's are calculated using computer software.
A modified version of the above HCMV polymerase assay is performed as described above, but with the following changes: Compounds are diluted in 100% DMSO until final dilution into assay buffer. In the previous assay, compounds are diluted in 50% DMSO. 4.5 mM dithiotherotol (DTT) is added to the polymerase buffer. […] All results are listed as Polymerase IC50 (μM) values. In Table 1, the term “nd” refers to activity data not determined.
(In general: Scintillation proximity formats need no separation of bound from free tracer.)

For data set [3], the target named is HSV polymerase (Human herpesvirus 1, UniProt P04293). The experiment in a line: HSV polymerase assay (Table 1). It is filed as biochemical.

Each structure is given as a SMILES string.

T1 sequence (P08546 whole entry): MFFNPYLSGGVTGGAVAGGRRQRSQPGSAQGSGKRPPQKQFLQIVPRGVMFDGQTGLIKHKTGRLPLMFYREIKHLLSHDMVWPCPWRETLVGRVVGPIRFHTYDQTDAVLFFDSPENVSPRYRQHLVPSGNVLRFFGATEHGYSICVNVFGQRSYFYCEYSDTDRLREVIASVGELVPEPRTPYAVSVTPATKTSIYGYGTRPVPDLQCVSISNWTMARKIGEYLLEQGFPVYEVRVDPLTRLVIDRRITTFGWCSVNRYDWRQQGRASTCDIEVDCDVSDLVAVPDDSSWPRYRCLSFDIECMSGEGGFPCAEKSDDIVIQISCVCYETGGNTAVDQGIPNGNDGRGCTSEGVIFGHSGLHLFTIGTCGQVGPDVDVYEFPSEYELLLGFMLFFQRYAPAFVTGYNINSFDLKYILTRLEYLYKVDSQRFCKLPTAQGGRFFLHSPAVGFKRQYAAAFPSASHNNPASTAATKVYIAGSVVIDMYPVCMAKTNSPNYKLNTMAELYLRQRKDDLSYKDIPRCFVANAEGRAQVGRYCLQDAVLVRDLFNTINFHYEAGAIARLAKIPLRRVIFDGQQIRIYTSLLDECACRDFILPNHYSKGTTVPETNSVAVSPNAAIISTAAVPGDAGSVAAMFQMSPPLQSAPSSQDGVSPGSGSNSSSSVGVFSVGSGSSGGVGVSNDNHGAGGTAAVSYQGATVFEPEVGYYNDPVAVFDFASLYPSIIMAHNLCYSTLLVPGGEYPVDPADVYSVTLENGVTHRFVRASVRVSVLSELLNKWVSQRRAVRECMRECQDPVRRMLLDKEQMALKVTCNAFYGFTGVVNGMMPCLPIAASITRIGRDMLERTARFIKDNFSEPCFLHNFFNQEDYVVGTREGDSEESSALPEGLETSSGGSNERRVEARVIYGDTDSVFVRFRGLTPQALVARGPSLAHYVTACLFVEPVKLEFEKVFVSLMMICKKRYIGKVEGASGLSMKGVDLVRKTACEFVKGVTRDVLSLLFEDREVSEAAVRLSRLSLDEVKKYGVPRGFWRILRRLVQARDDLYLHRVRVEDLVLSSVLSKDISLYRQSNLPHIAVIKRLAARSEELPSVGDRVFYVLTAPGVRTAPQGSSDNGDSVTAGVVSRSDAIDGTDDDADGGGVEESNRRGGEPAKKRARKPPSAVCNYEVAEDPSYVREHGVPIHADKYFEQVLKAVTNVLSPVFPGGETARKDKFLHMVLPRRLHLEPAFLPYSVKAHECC
Chain of HSV polymerase (P04293 whole entry): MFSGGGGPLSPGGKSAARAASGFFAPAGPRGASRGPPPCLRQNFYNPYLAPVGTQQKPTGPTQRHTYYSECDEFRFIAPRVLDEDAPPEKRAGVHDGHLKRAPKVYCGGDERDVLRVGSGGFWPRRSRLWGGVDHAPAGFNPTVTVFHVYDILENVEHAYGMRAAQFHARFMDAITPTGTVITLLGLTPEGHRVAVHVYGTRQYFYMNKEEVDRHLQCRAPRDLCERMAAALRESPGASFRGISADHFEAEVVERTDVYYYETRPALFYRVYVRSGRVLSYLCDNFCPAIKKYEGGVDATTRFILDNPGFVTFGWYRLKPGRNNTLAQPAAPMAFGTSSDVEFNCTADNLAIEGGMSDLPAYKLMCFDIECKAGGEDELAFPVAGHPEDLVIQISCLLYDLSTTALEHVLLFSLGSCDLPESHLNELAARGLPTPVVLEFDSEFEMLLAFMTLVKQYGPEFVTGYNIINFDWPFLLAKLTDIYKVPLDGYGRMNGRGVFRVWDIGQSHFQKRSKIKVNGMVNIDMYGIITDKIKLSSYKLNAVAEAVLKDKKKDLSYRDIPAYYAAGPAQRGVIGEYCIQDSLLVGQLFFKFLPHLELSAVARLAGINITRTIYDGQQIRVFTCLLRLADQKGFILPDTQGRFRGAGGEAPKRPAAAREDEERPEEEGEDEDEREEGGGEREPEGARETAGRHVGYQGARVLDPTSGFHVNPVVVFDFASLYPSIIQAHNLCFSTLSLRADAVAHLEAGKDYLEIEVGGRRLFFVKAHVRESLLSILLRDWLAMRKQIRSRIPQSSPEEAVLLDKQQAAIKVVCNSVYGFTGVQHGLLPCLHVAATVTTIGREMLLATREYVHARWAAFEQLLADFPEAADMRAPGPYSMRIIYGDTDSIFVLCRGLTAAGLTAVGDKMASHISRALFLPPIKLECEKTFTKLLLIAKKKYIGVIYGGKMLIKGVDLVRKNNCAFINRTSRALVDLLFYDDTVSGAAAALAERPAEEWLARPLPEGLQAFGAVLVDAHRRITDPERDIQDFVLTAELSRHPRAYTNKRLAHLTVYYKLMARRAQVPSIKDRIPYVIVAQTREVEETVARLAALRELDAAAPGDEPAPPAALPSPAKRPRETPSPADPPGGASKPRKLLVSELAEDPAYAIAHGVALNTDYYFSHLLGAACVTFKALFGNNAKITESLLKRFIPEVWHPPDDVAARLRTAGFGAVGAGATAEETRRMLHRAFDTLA
Chain of VZV polymerase (P09252 whole entry): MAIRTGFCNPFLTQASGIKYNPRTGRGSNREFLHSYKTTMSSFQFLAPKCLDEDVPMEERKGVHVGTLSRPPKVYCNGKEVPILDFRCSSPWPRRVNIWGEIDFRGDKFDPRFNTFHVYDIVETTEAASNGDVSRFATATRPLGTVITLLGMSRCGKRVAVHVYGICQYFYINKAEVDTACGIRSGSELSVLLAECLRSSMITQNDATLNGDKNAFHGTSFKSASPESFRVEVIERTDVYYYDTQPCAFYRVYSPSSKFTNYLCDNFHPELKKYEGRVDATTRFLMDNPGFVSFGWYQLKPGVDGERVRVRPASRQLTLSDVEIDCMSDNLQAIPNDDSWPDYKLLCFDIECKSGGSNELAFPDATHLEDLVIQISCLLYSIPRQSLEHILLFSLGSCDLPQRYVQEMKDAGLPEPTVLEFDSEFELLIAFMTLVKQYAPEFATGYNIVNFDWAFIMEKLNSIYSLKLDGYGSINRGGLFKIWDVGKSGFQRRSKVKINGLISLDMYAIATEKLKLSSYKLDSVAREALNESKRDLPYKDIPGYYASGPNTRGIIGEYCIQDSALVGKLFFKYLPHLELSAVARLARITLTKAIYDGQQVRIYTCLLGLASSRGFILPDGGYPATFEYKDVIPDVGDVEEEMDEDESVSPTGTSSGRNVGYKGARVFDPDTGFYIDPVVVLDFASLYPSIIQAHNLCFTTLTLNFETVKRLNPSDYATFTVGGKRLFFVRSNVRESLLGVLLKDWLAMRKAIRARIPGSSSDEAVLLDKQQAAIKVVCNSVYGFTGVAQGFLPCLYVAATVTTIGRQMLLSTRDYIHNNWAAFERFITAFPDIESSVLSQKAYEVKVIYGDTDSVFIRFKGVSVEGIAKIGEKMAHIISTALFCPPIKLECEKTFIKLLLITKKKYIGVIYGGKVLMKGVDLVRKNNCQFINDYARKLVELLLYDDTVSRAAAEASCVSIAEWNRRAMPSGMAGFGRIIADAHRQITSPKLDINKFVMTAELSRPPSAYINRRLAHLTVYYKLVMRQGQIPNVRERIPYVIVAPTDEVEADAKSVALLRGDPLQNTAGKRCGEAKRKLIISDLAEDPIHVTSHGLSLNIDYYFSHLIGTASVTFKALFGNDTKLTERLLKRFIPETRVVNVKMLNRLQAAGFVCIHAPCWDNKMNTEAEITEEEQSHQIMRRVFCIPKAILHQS

`Cn1nc(C(=O)NCc2ccc(Cl)cc2)c(=O)c2cc(C#CCO)ccc21` [Example 2, N-(4-chlorobenzyl)-6-(3-hydroxy-1-propynyl)-1-methyl-4-oxo-1,4-dihydro-3-cinnolinecarboxamide] displayed a melting point of 229 to 231 °C. This compound also yielded an IC50 in data set [1] of 1100 nM. Further, half-maximal inhibition in data set [2] (IC50) required 2700 nM. Further, 1700 nM corresponded to half-maximal inhibition in data set [3] (IC50).
`Cn1nc(C(=O)NCc2ccc(Cl)cc2)c(=O)c2cc(CO)ccc21` [Example 4, N-(4-chlorobenzyl)-6-(hydroxymethyl)-1-methyl-4-oxo-1,4-dihydro-3-cinnolinecarboxamide]: the melting point fell in the range of 203 to 205 °C. Moreover, the IC50 in data set [2] was 16700 nM.
The compound `Cn1nc(C(=O)NCc2ccc(Cl)cc2)c(=O)c2cc(CN3CCOCC3)ccc21` [Example 5, N-(4-chlorobenzyl)-1-methyl-6-(4-morpholinylmethyl)-4-oxo-1,4-dihydro-3-cinnolinecarboxamide] gave a melting point of 190 to 192 °C. The compound further returned an IC50 in data set [2] of 1200 nM.
With `Cn1nc(C(=O)NCc2ccc(Cl)cc2)c(=O)c2cc(I)ccc21` [Example 1, N-(4-chlorobenzyl)-6-iodo-1-methyl-4-oxo-1,4-dihydro-3-cinnolinecarboxamide], the melting point is 194 to 195 °C. In addition, the IC50 in data set [2] is 5500 nM.
`Cn1nc(C(=O)NCc2ccc(Cl)cc2)c(=O)c2cc(C#CCCO)ccc21` [Example 3, N-(4-chlorobenzyl)-6-(4-hydroxy-1-butynyl)-1-methyl-4-oxo-1,4-dihydro-3-cinnolinecarboxamide] displayed a melting point of 227 to 229 °C. The IC50 in data set [2] turned out to be 9800 nM.

By IC50 is commonly meant the concentration at which inhibition is half-maximal. One may read the melting point as the temperature of the solid-liquid transition.
